Measurements from PubChem BioAssay (NCI).
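Method: 48-hour compound exposure of cells in 96-well plates, five concentrations, linear interpolation of endpoints. Abbreviation: GI50, concentration required for 50% inhibition of growth. TGI: total growth inhibition.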

Experiments:
Assay in all cases: NCI-60 cell line screen, 48 h
LOX IMVI melanoma = tested on: LOX IMVI melanoma
HL-60(TB) leukemia = tested on: HL-60(TB) leukemia
ACHN renal = tested on: ACHN renal
NCI-H522 lung = tested on: NCI-H522 lung
RXF 393 renal = tested on: RXF 393 renal
HCT-15 colon = tested on: HCT-15 colon
NCI-H460 lung = tested on: NCI-H460 lung
UACC-257 melanoma = tested on: UACC-257 melanoma
TK-10 renal = tested on: TK-10 renal
PC-3 prostate = tested on: PC-3 prostate

Row | Structure (SMILES) | TGI (LOX IMVI melanoma) [µM] | TGI (HL-60(TB) leukemia) [µM] | TGI (ACHN renal) [µM] | TGI (NCI-H522 lung) [µM] | TGI (RXF 393 renal) [µM] | TGI (HCT-15 colon) [µM] | TGI (NCI-H460 lung) [µM] | TGI (UACC-257 melanoma) [µM] | TGI (TK-10 renal) [µM] | GI50 (LOX IMVI melanoma) [µM] | GI50 (HL-60(TB) leukemia) [µM] | GI50 (ACHN renal) [µM] | GI50 (NCI-H522 lung) [µM] | GI50 (PC-3 prostate) [µM] | TGI (PC-3 prostate) [µM] | GI50 (HCT-15 colon) [µM] | GI50 (NCI-H460 lung) [µM] | GI50 (UACC-257 melanoma) [µM] | GI50 (RXF 393 renal) [µM] | GI50 (TK-10 renal) [µM]
1 | COc1ccc2nc(C(=O)c3ccccc3)c(C)cc2c1 | > 100 | > 100 | > 100 | 5.75 | 17.3 | > 40.8 | > 100 | 26.4 | 76.1 | – | – | – | – | – | – | – | – | – | – | –
2 | COC1CC(O)C(OC(=O)c2ccccc2)C(C)O1 (stereo not given) | > 100 | > 100 | – | > 100 | – | > 100 | > 100 | – | > 100 | – | – | – | – | – | – | – | – | – | – | –
3 | COc1cc(C2C3=C(COC3=O)N(CCO)c3cc4c(cc32)OCCO4)cc(OC)c1OC (stereo not given) | > 50 | 1.28 | > 50 | 0.185 | – | > 50 | 1.68 | > 50 | – | 0.286 | 0.155 | 1.7 | 0.0626 | 0.185 | > 50 | 1.37 | 0.208 | 0.384 | – | –
4 | Cc1ccc2nc(NC(=O)C(=O)C(C#N)c3ccc(Cl)cc3)sc2c1 (stereo not given) | > 50 | – | > 50 | – | > 50 | > 50 | > 50 | > 50 | > 50 | – | – | – | – | – | – | – | – | – | – | –
5 | COc1ccccc1NC(=O)C1=C(C)NC(C)=C(C(=O)Nc2ccccc2OC)C1/C=C/c1ccccc1 | > 100 | > 100 | > 100 | – | – | > 100 | > 100 | > 100 | > 100 | – | – | – | – | – | – | – | – | – | – | –
6 | Cc1ccc(-c2nc(/C=N/Nc3cc(C)nc4ccc(Cl)cc34)c(C)o2)cc1 | – | 2.97 | 3.05 | – | 2.94 | 2.08 | 3.79 | 3.31 | 3.32 | – | 1.12 | 1.68 | – | 2.26 | 5.65 | 0.549 | 1.93 | 1.71 | 1.45 | 1.8
7 | c1ccc(OCCC[P+](c2ccccc2)(c2ccccc2)c2ccccc2)cc1 | 6.75 | 0.832 | 52.8 | 4.24 | – | > 100 | 13.5 | 5.71 | – | 2.18 | 0.285 | 8.94 | 0.574 | 0.58 | 6.17 | 22.2 | 2.79 | 0.381 | – | –
8 | CCOC(=O)/C(=C/c1cccc(Cl)c1)N(CC)CC | > 100 | > 100 | > 100 | 96.2 | – | > 100 | > 100 | > 100 | > 100 | – | – | – | – | – | – | – | – | – | – | –
9 | C/C(CN1C(=O)c2ccccc2C1=O)=N\NS(=O)(=O)c1cccc(C(=O)O)c1 | – | > 100 | > 100 | > 100 | – | > 100 | > 100 | > 100 | > 100 | – | – | – | – | – | – | – | – | – | – | –
10 | CC1=C(C(=O)Nc2ccccc2)C(c2ccccc2Cl)C(C(=O)Nc2ccccc2)=C(C)N1 | 33.6 | 31.8 | 94.1 | 35.4 | – | 38.5 | – | 38.5 | > 100 | – | – | – | – | – | – | – | – | – | – | –
11 | Cc1cc(C)c(C#N)c(Sc2nc(C)c([N+](=O)[O-])c(C)c2C#N)n1 | 3.44 | 7.34 | 3.38 | – | 5.55 | 6.25 | 16.2 | – | 8.28 | 1.82 | 2.63 | 1.75 | – | 4.67 | 61.2 | 2.32 | 3.63 | – | 2.16 | 3.27
12 | CCCCC#Cc1c(I)n(C)c(=O)[nH]c1=O | 2.97 | – | 3.08 | 3.25 | 5.91 | 2.87 | 39.7 | 5.5 | 16 | 1.62 | – | 1.71 | 1.56 | 12.8 | 25.4 | 1.52 | 20.1 | 2.46 | 2.6 | 4.76
13 | CC(C)c1cccc(C(C)C)c1N1C(=O)C(=O)C(c2nc3ccccc3o2)C(=O)C1=O | > 100 | > 100 | > 100 | 50.6 | > 100 | > 100 | > 100 | > 100 | > 100 | – | – | – | – | – | – | – | – | – | – | –
14 | COc1ccc(C2=Nc3ccccc3SC(C)C2)cc1OC (stereo not given) | 32.9 | 59.6 | 58.1 | 32.1 | – | 31.9 | 36.3 | 49.6 | 79.4 | – | – | – | – | – | – | – | – | – | – | –
15 | [N-]=[N+]=NCCCn1c2c(c3ccc([N+](=O)[O-])cc3c1=O)C(=O)c1cc(Br)ccc1-2 | > 100 | – | > 100 | > 100 | > 100 | > 100 | > 100 | > 100 | > 100 | > 100 | – | > 100 | > 100 | > 100 | > 100 | > 100 | 8.35 | > 100 | > 100 | > 100
16 | Cc1cc(N(CCOS(C)(=O)=O)CCOS(C)(=O)=O)ccc1C(=O)O | > 100 | – | > 100 | > 100 | – | > 100 | > 100 | – | > 100 | 73.5 | – | 50 | 10.7 | > 100 | > 100 | > 100 | 87.6 | – | – | > 100
17 | N#Cc1ccccc1NC(=O)C(=O)C1NC(=S)NC1=O (stereo not given) | > 100 | > 100 | > 100 | – | > 100 | > 100 | > 100 | > 100 | > 100 | – | – | – | – | – | – | – | – | – | – | –
18 | O=C(O)CCNS(=O)(=O)c1ccc2ccccc2c1 | > 100 | > 100 | > 100 | > 100 | – | > 100 | > 100 | > 100 | > 100 | – | – | – | – | – | – | – | – | – | – | –
19 | COc1ccc2oc3c(OC)c(OC)c(OC)cc3c(=O)c2c1 | > 100 | – | > 100 | > 100 | 84.4 | > 100 | > 100 | > 100 | > 100 | – | – | – | – | – | – | – | – | – | – | –
20 | CCOC(=O)c1cc(-c2ccc(-c3cc(C(=O)OCC)c(C#N)c(N)c3C#N)cc2)c(C#N)c(N)c1C#N | > 100 | > 100 | > 100 | > 100 | > 100 | > 100 | > 100 | > 100 | > 100 | – | – | – | – | – | – | – | – | – | – | –
